Patent publication US12252478B2
Where “and” joins values, the source holds several entries; their conditions need not be identical. Equal entries are not always repeated.

Experiments:
[1] = Solubility as a function of pH; assay type: physicochemical; settings: above pH 3
[2] = Intrinsic dissolution rate (VanKel instrument, Cary 100 photometer); assay type: physicochemical
Protocol: As measured on a VanKel instrument using a Cary 100 photometer, the intrinsic dissolution rate of Form A was determined in pH 4.5, pH 6.8 and 0.1 N HCl medium as follows:
As measured on a VanKel instrument using a Cary 100 photometer, the intrinsic dissolution rate of Form A was determined in pH 3.5, pH 4.5 and 0.1 N HCl medium as follows: […]

[3] = Hygroscopicity (water uptake); assay type: physicochemical
[4] = Thermodynamic stability of Forms A and B: heating and cooling cycles, transition temperatures
[5] = Equilibration in water depending on pH / form conversion; assay type: physicochemical
Excerpt: Forms A and B are enantiotropically related. […] Form B spontaneously transforms to Form A at ambient conditions. Form A can be converted to Modification HA, or Form HA, when equilibrated in water at pH 1.

[6] = heating/cooling rate 0.5° C./min
[7] = heating/cooling rate 10° C./min
[8] = heating/cooling rate 20° C./min
[9] = heating/cooling rate 40° C./min

SMILES: O=C(Nc1ccc(OC(F)(F)Cl)cc1)c1cnc(N2CC[C@@H](O)C2)c(-c2ccn[nH]2)c1 [Free Base form A]
- solubility [1]: rather low
- Intrinsic DR value ([2]; Acetate buffer pH 4.5): n.a (does not dissolve)
- Intrinsic DR value ([2]; HCL 0.1N): 1.8 mg/min/cm2 and 1.9 mg/min/cm2
- Intrinsic DR value ([2]; pH = 6.8): n.a (does not dissolve)
- water uptake ([3]; 25° C. up to 92% relative humidity): less than 0.1%

SMILES: Cl.O=C(Nc1ccc(OC(F)(F)Cl)cc1)c1cnc(N2CC[C@@H](O)C2)c(-c2ccn[nH]2)c1 [crystal form B of the hydrochloride salt]
- form stability at ambient conditions ([4]; ambient conditions): spontaneously transforms back into Form A
- transition B → A [4, 6]: 60.5 °C
- transition B → A ([4]; heating/cooling rate 1° C./min): 53.8 °C
- transition B → A ([4]; heating/cooling rate 5° C./min): 38.5 °C
- transition B → A [4, 7]: 37.5 °C
- transition B → A [4, 8]: 34.7 °C
- transition B → A [4, 9]: 32.2 °C
- decomposition observed ([4]; upon heating): above 240 °C

SMILES: Cl.O=C(Nc1ccc(OC(F)(F)Cl)cc1)c1cnc(N2CC[C@@H](O)C2)c(-c2ccn[nH]2)c1 [form A of HCl salt]
- solubility [1]: rather low
- behaviour when equilibrated in water ([5]; pH 1): converting into the trihydrate HA
- behaviour when equilibrated in water ([5]; pH>3.5): prone to disproportionate
- Intrinsic DR value ([2]; Acetate buffer pH 4.5): 0.01 mg/min/cm2
- Intrinsic DR value ([2]; Citrate buffer (pH 3.5)): 0.02 mg/min/cm2
- Intrinsic DR value ([2]; HCL 0.01N (pH 2)): 2.25 mg/min/cm2
- Intrinsic DR value ([2]; HCL 0.1N (pH 1)): 0.16 mg/min/cm2
- water uptake ([3]; 25° C. up to 95% relative humidity): less than 0.4%
- transition A → B [4, 6]: 95.1 °C
- transition A → B ([4]; heating/cooling rate 1° C./min): 96.5 °C
- transition A → B ([4]; heating/cooling rate 5° C./min): 100.3 °C
- transition A → B [4, 7]: 102.1 °C
- transition A → B [4, 8]: 104.8 °C
- transition A → B [4, 9]: 103.7 °C
